In US9657088B2, “Anti-HSV antibody” (priority 2009, dated 2017):
“Also recorded” adds a separate entry of the source. Where two headings read alike, the source gives them in different places.

What was measured:
HSV1 strain 342 hv [1] = settings: administration 24 h prior to viral inoculation; cited from earlier work
HSV-1 F [2] = experiment: Post-exposure treatment of NOD/SCID mice with established HSV-1 infection; type: in vivo
Description: Infected animals per group n=7.
Vaginal virus titers of antibody or control treated mice were determined from vaginal irrigations cultured on Vero cell monolayers. Error bars indicate standard deviation.
(§1) Anesthetized female nonobese diabetic/severe combined immunodeficient (NOD-SCID) mice (NOD.CB17-Prkdc^scid/J, Charles River Laboratories, Research Models and Services, Sulzfeld, Germany), 6-8 weeks of age, were challenged intravaginally with 20 μl inoculum of 1×10^6 TCID50 HSV-1 F per mouse. Skin glue (Epiglu, Meyer-Haake Medical Innovations, Wehrheim, Germany) was applied onto the vulva to prevent discharge of the virus inoculum. […] Mice were examined daily after viral inoculation for loss of weight, vulvitis/vaginitis (redness, mucopurulent discharge and signs of inflammation) and neurological disease. Mice displaying any of theses symptoms were sacrificed immediately. […] Mice were assessed for infection by determination of virus titers from vaginal irrigations obtained on days 1, 2, 4, 6 and 8 after infection and at the time of death using the endpoint dilution assay on Vero cells. Viral loads in organs (spleen, adrenal gland, lung heart, liver, kidney, spinal cord, and brain) of sacrificed mice were determined after homogenization of organs by titration on Vero cell monolayers as described elsewhere (41). Each test and control group contained 9-10 animals with detectable HSV-1 infection.

HSV-1 F [3] = experiment: Passive immunization of NOD/SCID mice 24 h before intravaginal HSV-1 challenge; type: in vivo
Description: Mice were infected intravaginally with 1×10^6 TCID50/20 μl of the neurovirulent HSV-1 strain F. Infected mice with symptoms of weight loss, vulvitis/vaginitis or neurological diseases were killed, and their organs examined for infectious virus by titration on Vero cell monolayers as described previously. Non-infected mice were killed at day 30. Animals per group n=7.
Animals per group n=7 for PBS, n=9 all other groups.
as §1
Natural killer (NK) cells accumulating at the site of HSV-2 infection in humans (28) are the early source of interferon-γ (45), which plays an essential role for the control of HSV infection (2, 45, 62).

HSV1 strain 342 hv [4] = experiment: Intravaginal HSV1 infection of C57BL/6J mice, i.p. antibody; type: in vivo; settings: i.p. post infection
Source text: Therefore, C57BL/6J mice were infected by application of the HSV1 strain 342 hv on the intact vaginal mucosa membrane.

HSV-1 F [5] = experiment: Cell-to-cell spread assay in Vero cell monolayers; type: cell-based; settings: 500 nM, 48 h
Description: Vero cells grown to confluency on glass cover slips in 24-weel tissue culture plates are infected for 4 h at 37° C. with a constant virus amount of 400 TCID50/well. One median tissue culture infective dose (1 TCID50) is the amount of a cytopathogenic agent, such as a virus, that will produce a cytopathic effect in 50% of the cell cultures inoculated. The virus inoculum is subsequently removed, the cells washed twice with PBS and further incubated for 2 days at 37° C. in 1 ml DMEM, 2% FCS, Pen/Strep containing an excess of either different anti-HSV antibodies or polyclonal anti-HSV control serum in order to prevent viral spreading via the supernatant Viral antigens of HSV-infected cells are detected with a fluorescence labelled polyclonal goat-anti-HSV-serum (BETHYL Labolatories, Montgomery, Tex. USA, Catalog No. A190-136F, Lot No. A190-136F-2).
Two days after infection spreading of the virus was detected with fluorescence labeled polyclonal goat-anti-HSV serum using a Leica DM IRE2 confocal microscope at 40-fold magnification.
For spreading within a host HSV uses two mechanisms: release of cell-free particles and direct, cell-to-cell spread. […] Viral antigens were detected by staining of HSV-1 infected cell monolayers with FITC-conjugated polyclonal goat-anti-HSV serum (BETHYL, Montgomery, Tex., USA) diluted 1:100 in blocking buffer. […]

[6] = test system: truncated HSV-1 glycoprotein B (gB) expressed in COS-1 cells; type: binding
HSV-1 = experiment: Plaque-reduction assay with or without human complement; type: cell-based; settings: 2 μg/ml, with or without 10% human complement

mAb 2c: murine monoclonal IgG2a antibody specific for glycoprotein B of HSV1 and HSV2; VH SEQ ID NO: 9, VL SEQ ID NO: 10
protection against infection (HSV1 strain 342 hv [1]): efficiently protected the animals against infection | protection from lethal outcome of established infection (HSV-1 F [2]; 15 mg/kg i.v. at 24 h, 40 h and 56 h post infection): completely protected from the lethal outcome of infection; also recorded: completely prevented lethal outcome of infection | virions in sensory neurons and respective organs (HSV-1 F [2]; one month after infection): no virions were detected | Median survival time prolonged compared to PBS control (HSV-1 F [3]; 5 mg/kg i.v., 24 h prior to challenge): 2.6 fold | protection against lethal encephalitis (HSV-1 F [3]; 15 mg/kg i.v., 24 h prior to infection): fully protected against lethal encephalitis; also recorded: full protection | Viral titres in organs of protected mice (HSV-1 F [3]; 15 mg/kg, detection limit): < 1×10^2 TCID50 | protection against lethal infection (HSV-1 F [3]; low antibody doses (2.5 mg/kg, 5 mg/kg)): not fully protected against lethal infection | survival (HSV-1 F [3]; single i.v. dose of 5 mg/kg, 24 h prior to infection): prolongs the survival | inhibition of viral replication and prevention of lethal disease (HSV1 strain 342 hv [4]; CD4+ and CD8+ depleted animals): capable to inhibit viral replication as well as to prevent a generalized, lethal progressing disease with a high efficiency | inhibition of viral propagation in vaginal mucosa and inflammatory lesions (HSV1 strain 342 hv [4]; immunocompetent and CD4+ T cell depleted animals): capable of inhibiting the viral propagation in the vaginal mucosa membrane and the formation of inflammatory lesions | inhibition of cell-to-cell spread (HSV-1 F [5]): inhibit at a concentration of 500 nM the cell-to-cell spread completely; also recorded: completely abrogated HSV-1 spread | Reactivity ([6]; gB(1-470)): − | Reactivity ([6]; gB(1-487)): + | Reactivity ([6]; gB(1-503)): + | Reactivity ([6]; gB(1-505)): + | Reactivity ([6]; gB(1-630)): + | Reactivity ([6]; gB(1-720)): + | Reactivity ([6]; gB(1-904) (full length gB)): + | Reactivity ([6]; pSVL, expression vector, negative control): − | complement dependence of HSV neutralization (HSV-1): neutralize HSV complement-independent
